Assay results published in patent US10927123B2, “Modulators of the beta-3 adrenergic receptor useful for the treatment or prevention of disorders related thereto” (Arena Pharmaceuticals, Inc., priority 2016, dated 2021).

Molecular target: Beta-3 Adrenergic Receptor (Homo sapiens (Human), UniProt P13945)
Experiment: HTRF cAMP antagonist assay (IC50 determination)
Type: cell-based
Details: CHO-K1 cells stably expressing recombinant receptor; antagonism of isoproterenol at EC90; cAMP readout
Procedure, shortened: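 In this functional readout, recombinant CHO-K1 cells received compound, then isoproterenol at its EC90. After 1 h at room temperature, cAMP levels were determined by HTRF using an on-plate standard curve, and IC50 values were fitted.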

Chain of Beta-3 Adrenergic Receptor (P13945 whole entry, species assumed): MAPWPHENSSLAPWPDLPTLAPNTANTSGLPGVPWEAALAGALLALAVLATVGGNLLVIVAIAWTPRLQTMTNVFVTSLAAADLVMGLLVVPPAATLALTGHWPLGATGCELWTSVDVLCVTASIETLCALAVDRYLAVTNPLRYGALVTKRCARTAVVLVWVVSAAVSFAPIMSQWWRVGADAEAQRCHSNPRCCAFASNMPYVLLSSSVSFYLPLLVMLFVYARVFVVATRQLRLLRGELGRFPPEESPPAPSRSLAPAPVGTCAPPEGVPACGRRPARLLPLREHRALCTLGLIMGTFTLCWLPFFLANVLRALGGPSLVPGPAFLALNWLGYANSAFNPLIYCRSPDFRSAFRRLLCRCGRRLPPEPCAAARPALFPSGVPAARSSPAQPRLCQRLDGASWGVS

| Structure (SMILES) | IC50 [nM] |
| --- | --- |
| O=S(=O)(c1cccc(-c2ccc(CN3CCC3)cc2)c1)N1CCC2(CC1)C[C@H](NC[C@H](O)COc1cccc(S(=O)(=O)C3(CO)CC3)c1)CO2 [Compound 243, (S)-1-((S)-8-(4′-(azetidin-1-ylmethyl)biphenyl-3-ylsulfonyl)-1-oxa-8-azaspiro[4.5]decan-3-ylamino)-3-(3-(1-(hydroxymethyl)cyclopropylsulfonyl)phenoxy)propan-2-ol] | 35 |
| CCCNCc1ccc(-c2cccc(S(=O)(=O)N3CCC4(CC3)C[C@H](NC[C@H](O)COc3cccc(S(=O)(=O)C5(CO)CC5)c3)CO4)c2)cc1 [Compound 244, (S)-1-(3-(1-(hydroxymethyl)cyclopropylsulfonyl)phenoxy)-3-((S)-8-(4′-((propylamino)methyl)biphenyl-3-ylsulfonyl)-1-oxa-8-azaspiro[4.5]decan-3-ylamino)propan-2-ol] | 27.8 |
| CCCCNCc1ccc(-c2cccc(S(=O)(=O)N3CCC4(CC3)C[C@H](NC[C@H](O)COc3cccc(S(=O)(=O)C5(CO)CC5)c3)CO4)c2)cc1 [Compound 245, (S)-1-((S)-8-(4′-((butylamino)methyl)biphenyl-3-ylsulfonyl)-1-oxa-8-azaspiro[4.5]decan-3-ylamino)-3-(3-(1-(hydroxymethyl)cyclopropylsulfonyl)phenoxy)propan-2-ol] | 18.4 |
| O=S(=O)(c1cccc(-c2ccc(CN3CCOCC3)cc2)c1)N1CCC2(CC1)C[C@H](NC[C@H](O)COc1cccc(S(=O)(=O)C3(CO)CC3)c1)CO2 [Compound 246, (S)-1-(3-(1-(hydroxymethyl)cyclopropylsulfonyl)phenoxy)-3-((S)-8-(4′-(morpholinomethyl)biphenyl-3-ylsulfonyl)-1-oxa-8-azaspiro[4.5]decan-3-ylamino)propan-2-ol] | 48.3 |
| COCCNCc1ccc(-c2cccc(S(=O)(=O)N3CCC4(CC3)C[C@H](NC[C@H](O)COc3cccc(S(=O)(=O)C5(CO)CC5)c3)CO4)c2)cc1 [Compound 247, (S)-1-(3-(1-(hydroxymethyl)cyclopropylsulfonyl)phenoxy)-3-((S)-8-(4′-((2-methoxyethylamino)methyl)biphenyl-3-ylsulfonyl)-1-oxa-8-azaspiro[4.5]decan-3-ylamino)propan-2-ol] | 33.5 |
| O=S(=O)(CCO)c1cc(F)cc(OC[C@@H](O)CN[C@H]2COC3(CCN(S(=O)(=O)c4cnc5ccccc5c4)CC3)C2)c1 [Compound 248, (S)-1-(3-fluoro-5-(2-hydroxyethylsulfonyl)phenoxy)-3-((R)-8-(quinolin-3-ylsulfonyl)-1-oxa-8-azaspiro[4.5]decan-3-ylamino)propan-2-ol] | 72.4 |
| O=S(=O)(CCO)c1cc(F)cc(OC[C@@H](O)CN[C@H]2COC3(CCN(S(=O)(=O)c4ccc5ncccc5c4)CC3)C2)c1 [Compound 249, (S)-1-(3-fluoro-5-(2-hydroxyethylsulfonyl)phenoxy)-3-((R)-8-(quinolin-6-ylsulfonyl)-1-oxa-8-azaspiro[4.5]decan-3-ylamino)propan-2-ol] | 224 |
| Cc1c(S(=O)(=O)N2CCC3(CC2)C[C@H](NC[C@H](O)COc2cccc(S(=O)(=O)C4(CO)CC4)c2)CO3)cnc2c1N(C)CCO2 [Compound 250, (S)-1-((S)-8-(1,8-dimethyl-2,3-dihydro-1H-pyrido[2,3-b][1,4]oxazin-7-ylsulfonyl)-1-oxa-8-azaspiro[4.5]decan-3-ylamino)-3-(3-(1-(hydroxymethyl)cyclopropylsulfonyl)phenoxy)propan-2-ol] | 336 |
| CCOc1ccc(-c2ccc(C(C)(C)N)cc2)cc1S(=O)(=O)N1CCC2(CC1)CC(NC[C@H](O)COc1cccc(S(=O)(=O)C3(CO)CC3)c1)CO2 (stereo partly drawn) [Compound 251] | 51.6 |
| CCOc1ccc(-c2ccc(C3(N)CC3)cc2)cc1S(=O)(=O)N1CCC2(CC1)C[C@H](NC[C@H](O)COc1cccc(S(=O)(=O)C3CC3)c1)CO2 [Compound 252] | 29.3 |
| COc1ccc(S(=O)(=O)N2CCC3(CC2)C[C@H](NC[C@H](O)COc2cccc(S(=O)(=O)C4CC4)c2)CO3)cc1-c1ccc(C2(N)CC2)cc1 [Compound 253, (S)-1-((S)-8-(4′-(1-aminocyclopropyl)-6-methoxybiphenyl-3-ylsulfonyl)-1-oxa-8-azaspiro[4.5]decan-3-ylamino)-3-(3-(cyclopropylsulfonyl)phenoxy)propan-2-ol] | 29.1 |
| CCOc1ccc(-c2ccc(C3(N)CC3)cc2)cc1S(=O)(=O)N1CCC2(CC1)C[C@@H](NC[C@H](O)COc1cccc(S(=O)(=O)C3CC3)c1)CO2 [Compound 254, (S)-1-((R)-8-(4′-(1-aminocyclopropyl)-4-ethoxybiphenyl-3-ylsulfonyl)-1-oxa-8-azaspiro[4.5]decan-3-ylamino)-3-(3-(cyclopropylsulfonyl)phenoxy)propan-2-ol] | 41.8 |
| COc1ccc(S(=O)(=O)N2CCC3(CC2)C[C@@H](NC[C@H](O)COc2cccc(S(=O)(=O)C4CC4)c2)CO3)cc1-c1ccc(C2(N)CC2)cc1 [Compound 255, (S)-1-((R)-8-(4′-(1-aminocyclopropyl)-6-methoxybiphenyl-3-ylsulfonyl)-1-oxa-8-azaspiro[4.5]decan-3-ylamino)-3-(3-(cyclopropylsulfonyl)phenoxy)propan-2-ol] | 27.9 |
| CCOc1ccc(-c2ccc(C3(N)CC3)cc2)cc1S(=O)(=O)N1CCC2(CC1)C[C@H](NC[C@H](O)COc1cccc(S(=O)(=O)CC)c1)CO2 [Compound 256, (S)-1-((S)-8-(4′-(1-aminocyclopropyl)-4-ethoxybiphenyl-3-ylsulfonyl)-1-oxa-8-azaspiro[4.5]decan-3-ylamino)-3-(3-(ethylsulfonyl)phenoxy)propan-2-ol] | 32.6 |
| CCOc1ccc(-c2ccc(C3(N)CC3)cc2)cc1S(=O)(=O)N1CCC2(CC1)C[C@@H](NC[C@H](O)COc1cccc(S(=O)(=O)CC)c1)CO2 [Compound 257, (S)-1-((R)-8-(4′-(1-aminocyclopropyl)-4-ethoxybiphenyl-3-ylsulfonyl)-1-oxa-8-azaspiro[4.5]decan-3-ylamino)-3-(3-(ethylsulfonyl)phenoxy)propan-2-ol] | 37.8 |
| CCS(=O)(=O)c1cccc(OC[C@@H](O)CN[C@H]2COC3(CCN(S(=O)(=O)c4ccc(OC)c(-c5ccc(C6(N)CC6)cc5)c4)CC3)C2)c1 [Compound 258, (S)-1-((R)-8-(4′-(1-aminocyclopropyl)-6-methoxybiphenyl-3-ylsulfonyl)-1-oxa-8-azaspiro[4.5]decan-3-ylamino)-3-(3-(ethylsulfonyl)phenoxy)propan-2-ol] | 27.7 |
| Cc1nc2c(cc1S(=O)(=O)N1CCC3(CC1)C[C@@H](NC[C@H](O)COc1cccc(S(=O)(=O)C4CC4)c1)CO3)N(C)CCO2 [Compound 259, (S)-1-(3-(cyclopropylsulfonyl)phenoxy)-3-((R)-8-(1,6-dimethyl-2,3-dihydro-1H-pyrido[2,3-b][1,4]oxazin-7-ylsulfonyl)-1-oxa-8-azaspiro[4.5]decan-3-ylamino)propan-2-ol] | 158 |
| Cc1c(S(=O)(=O)N2CCC3(CC2)C[C@@H](NC[C@H](O)COc2cccc(S(=O)(=O)C4(CO)CC4)c2)CO3)cnc2c1N(C)CCO2 [Compound 260, (S)-1-((R)-8-(1,8-dimethyl-2,3-dihydro-1H-pyrido[2,3-b][1,4]oxazin-7-ylsulfonyl)-1-oxa-8-azaspiro[4.5]decan-3-ylamino)-3-(3-(1-(hydroxymethyl)cyclopropylsulfonyl)phenoxy)propan-2-ol] | 178 |
